Laboratory results reported in patent publication US20240252650A1, “LIPID COMPOUNDS AND LIPID NANOPARTICLE COMPOSITIONS” (SUZHOU ABOGEN BIOSCIENCES CO., LTD., priority 2021, published 2024).

What was measured:
Assay type in all cases: physicochemical
[1] = Lipid nanoparticle size and polydispersity by dynamic light scattering (Malvern Zetasizer Nano ZS); settings: LNP encapsulating hEPO mRNA; table of Example 16
Method: (§1) Briefly, a cationic lipid provided herein, DSPC, cholesterol, and PEG-lipid were solubilized in ethanol at a molar ratio of 50:10:38.5:1.5, and mRNA were diluted in 10 to 50 mM citrate buffer, pH=4. The LNPs were prepared at a total lipid to mRNA weight ratio of approximately 10:1 to 30:1 by mixing the ethanolic lipid solution with the aqueous mRNA solution at a volume ratio of 1:3 using a microfluidic apparatus, total flow rate ranging from 9-30 mL/min. Ethanol were thereby removed and replaced by DPBS using dialysis. Finally, the lipid nanoparticles were filtered through a 0.2 μm sterile filter.
(§2) Lipid nanoparticle size were determined by dynamic light scattering using a Malvern Zetasizer Nano ZS (Malvern UK) using a 173° backscatter detection mode. The encapsulation efficiency of lipid nanoparticles were determined using a Quant-it Ribogreen RNA quantification assay kit (Thermo Fisher Scientific, UK) according to the manufacturer's instructions.

[2] = Encapsulation efficiency of lipid nanoparticles (Quant-it Ribogreen RNA quantification assay); settings: LNP encapsulating hEPO mRNA; table of Example 16
Method: as §1, §2

[3] = Apparent pKa of LNP formulations by TNS fluorescence assay; settings: LNP cationic lipid/DSPC/cholesterol/DMG-PEG 50/10/38.5/1.5 mol %, table of Example 16
Method: As reported in literature, the apparent pKa of LNP formulations correlates with the delivery efficiency of LNPs for nucleic acids in vivo. The apparent pKa of each formulation was determined using an assay based on fluorescence of 2-(p-toluidino)-6-napthalene sulfonic acid (TNS). LNP formulations comprising of cationic lipid/DSPC/cholesterol/DMG-PEG (50/10/38.5/1.5 mol %) in PBS were prepared as described above. TNS was prepared as a 300 uM stock solution in distilled water. LNP formulations were diluted to 0.1 mg/ml total lipid in 3 mL of buffered solutions containing 50 mM sodium citrate, 50 mM sodium phosphate, 50 mM sodium borate, and 30 mM sodium chloride where the pH ranged from 3 to 9. An aliquot of the TNS solution was added to give a final concentration of 0.1 mg/ml and following vortex mixing fluorescence intensity was measured at room temperature in a Molecular Devices Spectramax iD3 spectrometer using excitation and mission wavelengths of 325 nm and 435 nm. A sigmoidal best fit analysis was applied to the fluorescence data and the pKa value was measured as the pH giving rise to half-maximal fluorescent intensity.

polydispersity [1]	size (nm) [1]	Encapsulation Efficiency [2]	Apparant Pka [3]	Structure (SMILES)
0.047	77.60 nm	89.48%	5.56	CCCCC/C=C\C/C=C\CCCCCCCC(=O)OCC(COC(=O)CCCC(COC(=O)CCCCCCC)COC(=O)CCCCCCC)COC(=O)CCN(CCO)C1CCC1 (stereo not shown) [Compound 1]
0.121	88.27 nm	89.46%	6.649	CCCCC/C=C\C/C=C\CCCCCCCC(=O)OCC(COC(=O)CCOC(COC(=O)CCCCCCC)COC(=O)CCCCCCC)COC(=O)OCCCN(CC)CC (stereo not shown) [Compound 3]
0.090	93.73 nm	91.42%	6.881	CCCCC/C=C\C/C=C\CCCCCCCC(=O)OCC(COC(=O)CCCCN(CCO)C1CCC1)COC(=O)CCCC(COC(=O)CCCCCCC)COC(=O)CCCCCCC (stereo not shown) [Compound 4]
0.049	63.20 nm	85.90%	–	CCCCC/C=C\C/C=C\CCCCCCCC(=O)OCC(COC(=O)CCCC(COC(=O)CCCCCCC)COC(=O)CCCCCCC)COC(=O)OCCN(CCO)C1CCCCC1 (stereo not shown) [Compound 8]
0.096	53.68 nm	81.79%	–	CCCCC/C=C\C/C=C\CCCCCCCC(=O)OCC(COC(=O)CCCC(COC(=O)CCCCCCC)COC(=O)CCCCCCC)COC(=O)OCCN(CCO)C1CCC1 (stereo not shown) [Compound 12]
0.043	90.47 nm	93.04%	–	CCCCCCCCCCCC(=O)OCC(COC(=O)CCCC(COC(=O)CCCCCCC)COC(=O)CCCCCCC)COC(=O)CCN(CCO)C1CCC1 (stereo not shown) [Compound 15]
0.031	84.24 nm	78.25%	6.915	CCCCCCCCCCCCC(=O)OCC(COC(=O)CCCCN(CCO)C1CCC1)COC(=O)CCCC(COC(=O)CCCCCCC)COC(=O)CCCCCCC (stereo not shown) [Compound 18]
0.053	71.21 nm	83.76%	–	CCCCC/C=C\C/C=C\CCCCCCCC(=O)OCC(COC(=O)CCCC(COC(=O)CCCCCCC)COC(=O)CCCCCCC)COC(=O)OCCN(CCO)C1CCCC1 (stereo not shown) [Compound 33]
0.049	82.63 nm	89.00%	6.307	CCCCC/C=C\C/C=C\CCCCCCCC(=O)OCC(COC(=O)CCCC(COC(=O)CCCCCCC)COC(=O)CCCCCCC)COC(=O)OCCCN(CCO)C1CCC1 (stereo not shown) [Compound 34]
–	–	–	6.895	CCCCCCCCCCCCCCCC(=O)OCC(COC(=O)CCCCN(CCO)C1CCC1)COC(=O)CCCC(COC(=O)CCCCCCC)COC(=O)CCCCCCC (stereo not shown) [Compound 41]
0.077	96.94 nm	92.04%	6.879	CCCCC/C=C\C/C=C\CCCCCCCC(=O)OCC(COC(=O)CCCCCCN(CCO)C1CCC1)COC(=O)CCCC(COC(=O)CCCCCCC)COC(=O)CCCCCCC (stereo not shown) [Compound 42]
0.04	95.19 nm	93.46%	6.766	CCCCC/C=C\C/C=C\CCCCCCCC(=O)OCC(COC(=O)CCCCCCCN(CCO)C1CCC1)COC(=O)CCCC(COC(=O)CCCCCCC)COC(=O)CCCCCCC (stereo not shown) [Compound 43]
–	–	–	6.812	CCCCCCCC(=O)OCC(CCCC(=O)OCC(COC(=O)CCCCCCC)COC(=O)CCCCCCCN(CCO)C1CCC1)COC(=O)CCCCCCC (stereo not shown) [Compound 44]
0.067	144.2 nm	90.08%	6.965	CCCCCCCCC(=O)OCC(COC(=O)CCCCCN(CCO)C1CCC1)COC(=O)CCCC(COC(=O)CCCCCCC)COC(=O)CCCCCCC (stereo not shown) [Compound 45]
0.069	158.9 nm	89.87%	7.088	CCCCCCCCC(=O)OCC(COC(=O)CCCCCCCN(CCO)C1CCC1)COC(=O)CCCC(COC(=O)CCCCCCC)COC(=O)CCCCCCC (stereo not shown) [Compound 46]
–	–	–	7.217	CCCCCCCCCC(=O)OCC(COC(=O)CCCCN(CCO)C1CCC1)COC(=O)CCCC(COC(=O)CCCCCCC)COC(=O)CCCCCCC (stereo not shown) [Compound 47]

polydispersity [1]	size (nm) [1]	Encapsulation Efficiency [2]	Apparant Pka [3]	Structure (SMILES)
0.087	108.4 nm	93.21%	7.229	CCCCCCCCCCC(=O)OCC(COC(=O)CCCCN(CCO)C1CCC1)COC(=O)CCCC(COC(=O)CCCCCCC)COC(=O)CCCCCCC (stereo not shown) [Compound 48]
0.086	100.8 nm	89.09%	7.287	CCCCCCCCCCC(=O)OCC(COC(=O)CCCCCN(CCO)C1CCC1)COC(=O)CCCC(COC(=O)CCCCCCC)COC(=O)CCCCCCC (stereo not shown) [Compound 49]
–	–	–	7.288	CCCCCCCCCCCC(=O)OCC(COC(=O)CCCCCN(CCO)C1CCC1)COC(=O)CCCC(COC(=O)CCCCCCC)COC(=O)CCCCCCC (stereo not shown) [Compound 51]
–	–	–	7.041	CCCCCCCCCCCC(=O)OCC(COC(=O)CCCCCCCN(CCO)C1CCC1)COC(=O)CCCC(COC(=O)CCCCCCC)COC(=O)CCCCCCC (stereo not shown) [Compound 52]
–	–	–	7.019	CCCCCCCCCCCCCCCCCC(=O)OCC(COC(=O)CCCCCN(CCO)C1CCC1)COC(=O)CCCC(COC(=O)CCCCC)COC(=O)CCCCCCC (stereo not shown) [Compound 61]
–	–	–	6.999	CCCCCCCCCCCCC(=O)OCC(COC(=O)CCCCCN(CCO)C1CCC1)COC(=O)CCCC(COC(=O)CCCCCCC)COC(=O)CCCCCCC (stereo not shown) [Compound 63]
–	–	–	6.111	CCCCCCCCCCCCCCCCCC(=O)OCC(COC(=O)CCCC(COC(=O)CCCCCCC)COC(=O)CCCCCCC)COC(=O)OCCCN(CCO)C1CCCCC1 (stereo not shown) [Compound 65]
–	–	–	6.349	CCCCCCCCC(=O)OCC(COC(=O)CCCC(COC(=O)CCCCCCC)COC(=O)CCCCCCC)COC(=O)OCCCN(CCO)C1CCC1 (stereo not shown) [Compound 67]
–	–	–	7.076	CCCCCCCCCCCCCCCCCC(=O)OCC(COC(=O)CCCCN(CCO)C1CCC1)COC(=O)CCCC(COC(=O)CCCCCCC)COC(=O)CCCCCCC (stereo not shown) [Compound 72]
–	–	–	6.547	CCCCCCCCCCCCCCCCCC(=O)OCC(COC(=O)CCCCN(CCO)C1CCCCCC1)COC(=O)CCCC(COC(=O)CCCCCCC)COC(=O)CCCCCCC (stereo not shown) [Compound 75]
–	–	–	6.887	CCCCCCCCCC(=O)OCC(COC(=O)CCCCCCN(CCO)C1CCC1)COC(=O)CCCC(COC(=O)CCCCCCC)COC(=O)CCCCCCC (stereo not shown) [Compound 79]
–	–	–	6.858	CCCCCCCCCC(=O)OCC(COC(=O)CCCCCCCN(CCO)C1CCC1)COC(=O)CCCC(COC(=O)CCCCCCC)COC(=O)CCCCCCC (stereo not shown) [Compound 80]
–	–	–	7.232	CCCCCCCCCCCCCCCCCC(=O)OCC(COC(=O)CCCCN(CCC)CCO)COC(=O)CCCC(COC(=O)CCCCCCC)COC(=O)CCCCCCC (stereo not shown) [Compound 83]
–	–	–	5.905	C=CCN(CCO)CCCOC(=O)OCC(COC(=O)CCCCCCC/C=C\C/C=C\CCCCC)COC(=O)CCCC(COC(=O)CCCCCCC)COC(=O)CCCCCCC (stereo not shown) [Compound 88]
–	–	–	6.192	C/C=C/CN(CCO)CCCOC(=O)OCC(COC(=O)CCCCCCC/C=C\C/C=C\CCCCC)COC(=O)CCCC(COC(=O)CCCCCCC)COC(=O)CCCCCCC (stereo not shown) [Compound 94]
–	–	–	6.006	CCCCCCCCCCCCCCCCCC(=O)OCC(COC(=O)CCCCN(CCO)CC(C)C)COC(=O)CCCC(COC(=O)CCCCCCC)COC(=O)CCCCCCC (stereo not shown) [Compound 97]
